Here are results for 42 compounds from BindingDB's records for doi:10.1021/jm010384j (Wake Forest University School of Medicine, 2001).

Bounds are passed on as bounds.

For the assay, the target named is Sigma non-opioid intracellular receptor 1 (Cavia porcellus) (UniProt Q60492). The assay can be described thus: Binding affinity for sigma 1 opioid receptor, measured on guinea pig brain membranes using [3H]- (+)-pentazocine as radioligand.
Chain of Sigma non-opioid intracellular receptor 1 (Cavia porcellus) (Q60492 whole entry, looked up): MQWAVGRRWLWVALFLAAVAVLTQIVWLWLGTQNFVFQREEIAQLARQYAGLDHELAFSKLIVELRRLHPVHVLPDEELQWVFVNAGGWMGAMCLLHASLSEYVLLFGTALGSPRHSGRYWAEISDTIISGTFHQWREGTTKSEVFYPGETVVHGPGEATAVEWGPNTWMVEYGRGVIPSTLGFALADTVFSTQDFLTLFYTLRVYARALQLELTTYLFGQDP
With `O=C(Nc1cccc2ccccc12)NC1CCN(Cc2ccccc2)CC1` [1-(1-Benzyl-piperidin-4-yl)-3-naphthalen-1-yl-urea], the inhibition constant (Ki) was 22.7 nM.

`O=C(Cc1ccccc1F)NC1CCN(Cc2cccc(I)c2)CC1` [2-(2-Fluoro-phenyl)-N-[1-(3-iodo-benzyl)-piperidin-4-yl]-acetamide]: the Ki amounted to 15.4 nM.

Compound `O=C(Cc1ccccc1F)NC1CCN(Cc2ccc(I)cc2)CC1` [2-(2-Fluoro-phenyl)-N-[1-(4-iodo-benzyl)-piperidin-4-yl]-acetamide] gave an inhibition constant Ki of 4.2 nM.

The compound `O=C(Cc1cccc(Br)c1)NC1CCN(Cc2cccc(I)c2)CC1` [2-(3-Bromo-phenyl)-N-[1-(3-iodo-benzyl)-piperidin-4-yl]-acetamide] came in with a Ki of 3.49 nM.

Take `O=C(Cc1cccc(Br)c1)NC1CCN(Cc2ccc(F)cc2)CC1` [2-(3-Bromo-phenyl)-N-[1-(4-fluoro-benzyl)-piperidin-4-yl]-acetamide]: the affinity, expressed as Ki, was 1.21 nM.

For `O=C(Cc1cccc(Br)c1)NC1CCN(Cc2ccc(I)cc2)CC1` [2-(3-Bromo-phenyl)-N-[1-(4-iodo-benzyl)-piperidin-4-yl]-acetamide], the Ki turned out to be 1.78 nM. This Ki and that of the compound before are within 1.5-fold of each other.

`O=C(Cc1cccc(Cl)c1)NC1CCN(Cc2cccc(I)c2)CC1` [2-(3-Chloro-phenyl)-N-[1-(3-iodo-benzyl)-piperidin-4-yl]-acetamide] showed a Ki of 2.31 nM.

On to `O=C(Cc1cccc(Cl)c1)NC1CCN(Cc2ccc(F)cc2)CC1` [2-(3-Chloro-phenyl)-N-[1-(4-fluoro-benzyl)-piperidin-4-yl]-acetamide], for which the inhibition constant (Ki) came out at 1.15 nM. This Ki is about 2-fold lower than that of the compound before.

Compound `O=C(Cc1cccc(Cl)c1)NC1CCN(Cc2ccc(I)cc2)CC1` [2-(3-Chloro-phenyl)-N-[1-(4-iodo-benzyl)-piperidin-4-yl]-acetamide] registered an inhibition constant (Ki) of 3.21 nM. Compared with the last compound, the Ki is about 2.8-fold higher.

`O=C(Cc1cccc(F)c1)NC1CCN(Cc2cccc(I)c2)CC1` [2-(3-Fluoro-phenyl)-N-[1-(3-iodo-benzyl)-piperidin-4-yl]-acetamide]: the inhibition constant (Ki) came to 4.29 nM.

The compound `O=C(Cc1cccc(F)c1)NC1CCN(Cc2ccc(I)cc2)CC1` [2-(3-Fluoro-phenyl)-N-[1-(4-iodo-benzyl)-piperidin-4-yl]-acetamide] registered an inhibition constant (Ki) of 2.25 nM.

`O=C(Cc1ccccc1)NC1CCN(Cc2ccccc2C(F)(F)F)CC1` [2-Phenyl-N-[1-(2-trifluoromethyl-benzyl)-piperidin-4-yl]-acetamide]: the inhibition constant (Ki) was above 1000 nM.

The compound `O=C(Cc1ccccc1)NC1CCN(Cc2cccc(C(F)(F)F)c2)CC1` [2-Phenyl-N-[1-(3-trifluoromethyl-benzyl)-piperidin-4-yl]-acetamide] showed a Ki of 141 nM. This lies in the sub-micromolar range.

As to `O=C(Cc1ccccc1)NC1CCN(Cc2ccc(C(F)(F)F)cc2)CC1` [2-Phenyl-N-[1-(4-trifluoromethyl-benzyl)-piperidin-4-yl]-acetamide], the Ki came to 87 nM. This Ki is about 1.6-fold lower than that of the compound before.

The compound `O=C(Cc1cnc[nH]1)NC1CCN(Cc2ccccc2)CC1` [N-(1-Benzyl-piperidin-4-yl)-2-(1H-imidazol-4-yl)-acetamide] registered an inhibition constant (Ki) of 248 nM.

With `O=C(Cc1c[nH]c2ccccc12)NC1CCN(Cc2ccccc2)CC1` [N-(1-Benzyl-piperidin-4-yl)-2-(1H-indol-3-yl)-acetamide], the inhibitory constant (Ki) was 10.9 nM.

For `O=C(Cc1ccc(I)cc1)NC1CCN(Cc2ccccc2)CC1` [N-(1-Benzyl-piperidin-4-yl)-2-(4-iodo-phenyl)-acetamide], the Ki was found to be 13.8 nM.

`O=C(Cc1c[nH]c2ccc(Br)cc12)NC1CCN(Cc2ccccc2)CC1` [N-(1-Benzyl-piperidin-4-yl)-2-(5-bromo-1H-indol-3-yl)-acetamide]: the inhibitory constant (Ki) turned out to be 51.9 nM.

On to `COc1ccc2[nH]cc(CC(=O)NC3CCN(Cc4ccccc4)CC3)c2c1` [N-(1-Benzyl-piperidin-4-yl)-2-(5-methoxy-1H-indol-3-yl)-acetamide], for which the inhibition constant (Ki) worked out at 125 nM.

For `COc1ccc2c(c1)C(CC(=O)NC1CCN(Cc3ccccc3)CC1)CC2=O` (configuration not stated) [N-(1-Benzyl-piperidin-4-yl)-2-(6-methoxy-3-oxo-indan-1-yl)-acetamide], the inhibitory constant (Ki) was determined as 299 nM.

Take `O=C1C=CC2C(CC(=O)NC3CCN(Cc4ccccc4)CC3)=CC(=O)OC2C1` (configuration not stated) [N-(1-Benzyl-piperidin-4-yl)-2-(7-hydroxy-2-oxo-4a,8a-dihydro-2H-chromen-4-yl)-acetamide]: the Ki was above 1000 nM.

With `O=C(CSc1ncccn1)NC1CCN(Cc2ccccc2)CC1` [N-(1-Benzyl-piperidin-4-yl)-2-(pyrimidin-2-ylsulfanyl)-acetamide], the Ki stood at 150 nM.

`O=C(Cc1cccc2ccccc12)NC1CCN(Cc2ccccc2)CC1` [N-(1-Benzyl-piperidin-4-yl)-2-naphthalen-1-yl-acetamide]: the Ki is 4.64 nM.

`O=C(Cc1ccc2ccccc2c1)NC1CCN(Cc2ccccc2)CC1` [N-(1-Benzyl-piperidin-4-yl)-2-naphthalen-2-yl-acetamide]: the Ki was 61.8 nM.

Compound `O=C(Cc1ccccn1)NC1CCN(Cc2ccccc2)CC1` [N-(1-Benzyl-piperidin-4-yl)-2-pyridin-2-yl-acetamide] returned a Ki of 236 nM.

As for `O=C(Cc1cccnc1)NC1CCN(Cc2ccccc2)CC1` [N-(1-Benzyl-piperidin-4-yl)-2-pyridin-3-yl-acetamide], the Ki amounted to 269 nM.

In turn, `O=C(Cc1ccncc1)NC1CCN(Cc2ccccc2)CC1` [N-(1-Benzyl-piperidin-4-yl)-2-pyridin-4-yl-acetamide] returned an inhibition constant Ki of 298 nM.

Consider `O=C(Cc1cccs1)NC1CCN(Cc2ccccc2)CC1` [N-(1-Benzyl-piperidin-4-yl)-2-thiophen-2-yl-acetamide], for which affinity was put at a Ki of 3.93 nM.

For `O=C(Cc1ccsc1)NC1CCN(Cc2ccccc2)CC1` [N-(1-Benzyl-piperidin-4-yl)-2-thiophen-3-yl-acetamide], the inhibition constant (Ki) was determined as 7.2 nM.

`O=C(Cc1ccccc1)NC1CCN(Cc2ccc3ccccc3c2)CC1` [N-(1-Naphthalen-2-ylmethyl-piperidin-4-yl)-2-phenyl-acetamide]: the Ki was found to be 23.9 nM.

As to `O=C(Cc1ccccc1)NC1CCN(CCc2ccccc2)CC1` [N-(1-Phenethyl-piperidin-4-yl)-2-phenyl-acetamide], the Ki was determined as 31.2 nM.

Compound `O=C(Cc1ccccc1)NC1CCN(Cc2ccccc2F)CC1` [N-[1-(2-Fluoro-benzyl)-piperidin-4-yl]-2-phenyl-acetamide] yielded a Ki of 10.2 nM.

Compound `O=C(Cc1ccccc1)NC1CCN(Cc2ccccc2I)CC1` [N-[1-(2-Iodo-benzyl)-piperidin-4-yl]-2-phenyl-acetamide] yielded an inhibition constant Ki of 347 nM.

For `O=C(Cc1ccccc1)NC1CCN(Cc2ccc(Cl)c(Cl)c2)CC1` [N-[1-(3,4-Dichloro-benzyl)-piperidin-4-yl]-2-phenyl-acetamide], the affinity corresponds to a Ki of 7.24 nM.

Take `O=C(Cc1ccccc1)NC1CCN(Cc2ccc(F)c(F)c2)CC1` [N-[1-(3,4-Difluoro-benzyl)-piperidin-4-yl]-2-phenyl-acetamide]: the Ki came out at 6.3 nM.

Regarding `O=C(Cc1ccccc1)NC1CCN(Cc2cccc(F)c2)CC1` [N-[1-(3-Fluoro-benzyl)-piperidin-4-yl]-2-phenyl-acetamide], the affinity, expressed as Ki, was 8.22 nM.

`O=C(Cc1ccccc1)NC1CCN(Cc2cccc(I)c2)CC1` [N-[1-(3-Iodo-benzyl)-piperidin-4-yl]-2-phenyl-acetamide] registered a Ki of 6.75 nM.

The compound `O=C(Cc1ccccc1F)NC1CCN(Cc2ccc(F)cc2)CC1` [N-[1-(4-Fluoro-benzyl)-piperidin-4-yl]-2-(2-fluoro-phenyl)-acetamide] registered an inhibitory constant (Ki) of 3.15 nM.

`O=C(Cc1cccc(F)c1)NC1CCN(Cc2ccc(F)cc2)CC1` [N-[1-(4-Fluoro-benzyl)-piperidin-4-yl]-2-(3-fluoro-phenyl)-acetamide] showed a Ki of 5.51 nM.

`O=C(Cc1ccccc1)NC1CCN(Cc2ccc(F)cc2)CC1` [N-[1-(4-Fluoro-benzyl)-piperidin-4-yl]-2-phenyl-acetamide] registered an inhibition constant (Ki) of 6.59 nM.

`O=C(Cc1ccccc1)NC1CCN(Cc2ccc(I)cc2)CC1` [N-[1-(4-Iodo-benzyl)-piperidin-4-yl]-2-phenyl-acetamide] registered an inhibition constant (Ki) of 9.03 nM.

For `O=C(Cc1ccccc1)NC1CCN(Cc2ccc([N+](=O)[O-])cc2)CC1` [N-[1-(4-Nitro-benzyl)-piperidin-4-yl]-2-phenyl-acetamide], affinity was put at a Ki of 19.1 nM.

Broadly, the Ki is a measure of affinity in units of concentration, obtained from inhibition or displacement.
